In assay [1] the test system is NLVPMVATV peptide-pulsed T2 cells. Nature of the assay: Antigen-specific cell killing assay. The format is cell-based, human.
The test system of assay [2] is activated human T cells (proliferation). Nature of the assay: cells. The format is cell-based. Particulars: for effect of the substance on T cell proliferation: activated human T cells; for restoration of adenosine-mediated inhibition of T cell proliferation: uridine, cytidine all 30 µM; for EC50: Homo sapiens, T-cell.
The next assay has as its system activated human T cells. In words: [3H]adenosine uptake assay. The format is cell-based. Particulars: dilazep 1 µM, one value per donor.
The test system of assay [3] is activated human T cells (viability). Format: cell-based. Particulars: for effect of the substance on T cell viability: activated human T cells.
The subject of assay [4] is IFNγ production by activated human T cells. Format: cell-based.
Assay [5] has as its system pyrimidine and purine metabolites in activated human T cells. The format is cell-based. Particulars: 24 h; for levels of UMP, UDP, UTP and CTP (metabolites downstream of UMPS) / levels of carbamoyl aspartate, DHO and orotate: adenosine-exposed activated human T cells.
Assay [6] has as its system TNF production by activated human T cells. Format: cell-based.
Assay [7] concerns NLVPMVATV-specific CD8^+ T cells in PBMCs. Nature of the assay: CMV pp65 antigen recall assay, tetramer staining. The format is cell-based, human. Particulars: in the presence of ATP (300 µM); EOS301984 300 nM, anti-PD-1 10 µg ml^-1; representative donor.
Assay [8] has as its system mitochondrial respiration of activated human T cells. Format: cell-based.
In assay [9] the test system is PD-1^+TIM-3^+CD39^+ CD8^+ TILs from NSCLC. The format is cell-based, human. Particulars: ex vivo stimulated PD-1^+TIM-3^+CD39^+ CD8^+ T cells, adenosine 100 µM, EOS301984 300 nM.
Where [10] appears, read: in the presence of 100 µM adenosine, 72 h activation.

Like-named read-outs stand apart in the source and are kept apart here.

As to “Anti-PD-1: anti-PD-1 antibody OPDIVO (nivolumab), Bristol-Myers Squibb [reference compound]”, in assay [1] (in the absence of ATP), the “antigen-specific killing by the PBMC population” value is reported as “did not have a clear effect”.

`Nc1ccn([C@@H]2O[C@H](CO)[C@@H](O)[C@H]2O)c(=O)n1` [cytidine]: in [2], the “effect of the substance on T cell proliferation” value (“effect … on T cell proliferation” for short) was “did not suppress” and the “restoration of adenosine-mediated inhibition of T cell proliferation” value is reported as “not observed”.

As to `COc1cc(C(=O)OCCCN2CCCN(CCCOC(=O)c3cc(OC)c(OC)c(OC)c3)CC2)cc(OC)c1OC` [Dilazep, dilazep, reference compound], the “[3H]adenosine uptake” value in the assay with activated human T cells is “reduced”. Moreover, the “restoration of T cell proliferation” value in assay [2] (setting [10]) is listed as “restored”. In addition, the “restoration of T cell viability” value in assay [3] (setting [10]) is on record as “restored”. Further, the IFNγ production result in assay [4] (in the presence of 100 µM adenosine) is given as “restored”. Also, in [5], the “levels of UMP, UDP, UTP and CTP (metabolites downstream of UMPS)” value (shortened to “levels of UMP, UDP, UTP and CTP”) is given as “increased”; the “levels of carbamoyl aspartate, DHO and orotate” value is “reduced”.

On to `Nc1ncnc2nc(-c3ccc(N4CCOCC4)nc3)cc(-c3cccc(Br)c3)c12` [ABT-702, 4-amino-5-(3-bromophenyl)-7-(6-morpholino-pyridin-3-yl)pyrido[2,3-d]pyrimidine, reference compound], for which the EC50 in assay [2] (read-out: EC50, rescue of activated CD8^+ T cell proliferation) was found to be 23.8 nM. For the same compound, the “levels of UMP, UDP, UTP and CTP” value in [5] is “restored pyrimidine metabolism”.

Regarding `Nc1ncnc2c1ncn2[C@@H]1O[C@H](COP(=O)(O)OP(=O)(O)OP(=O)(O)O)[C@@H](O)[C@H]1O` [ATP], the “effect … on T cell proliferation” value in assay [2] is listed as “suppressed”. In assay [3], the “effect of the substance on T cell viability” value is reported as “suppressed”. In addition, the “effect of the substance on TNF production” value in assay [6] is reported as “suppressed”. Also, in assay [7], the “Tet^+ of CD8^+ T cells” value is “profound suppression”. Besides, in assay [1] (ATP present during the expansion phase), the “antigen-specific killing by the PBMC population” value is on record as “reduced”.

In the case of `Nc1ncnc2c1ncn2[C@@H]1O[C@H](CO)[C@@H](O)[C@H]1O` [Adenosine, adenosine], the “effect … on T cell proliferation” value in assay [2] is reported as “inhibited”. Also, in [3], the “effect of the substance on T cell viability” value was “loss of viability”. Moreover, the “effect of the substance on TNF production” value in assay [6] is reported as “inhibited”. The “effect of the substance on IFNγ production” value in assay [4] (activated human T cells) is reported as “inhibited”. In addition, in assay [5], the “levels of UMP, UDP, UTP and CTP” value is “dose-dependently depleted”; the “levels of carbamoyl aspartate, DHO and orotate” value is “increase”. The “levels of adenosine metabolites (purines)” value in assay [5] (adenosine-treated versus DMSO-treated T cells) is “Dose-dependent increases”. In addition, in assay [8], the “mitochondrial respiration (OCR)” value was “reduced”. Also, in assay [9], the “fraction of cells producing IFNγ and granzyme B” value is recorded as “suppressed”.

With `O=c1ccn([C@@H]2O[C@H](CO)[C@@H](O)[C@H]2O)c(=O)[nH]1` [Uridine, uridine], the EC50 in assay [2] (read-out: EC50, rescue of T cell proliferation) is 1100 nM. Besides, in assay [2], the “effect … on T cell proliferation” value is “did not suppress” and the “restoration of adenosine-mediated inhibition of T cell proliferation” value is listed as “restored”. Also, the “levels of UMP, UDP, UTP and CTP” value in assay [5] is on record as “normalized pyrimidine levels”.
